This note sets out measurements from patent publication US11161846B2, “Substituted pyrazolo[4,3-b]pyridines and their use as GluN2B receptor modulators” (JANSSEN PHARMACEUTICA NV, priority 2019, dated 2021).

By IC50 is commonly meant the point on the concentration scale where inhibition reaches its midpoint.

Some results are limits rather than exact numbers.

For this assay, the target named is T1, human GluN1/GluN2B NMDA receptors (Homo sapiens, UniProt Q05586+Q13224).
T1 construct: expressed in transfected cells
T1 sequence (Q13224 27-1484, other chains not shown): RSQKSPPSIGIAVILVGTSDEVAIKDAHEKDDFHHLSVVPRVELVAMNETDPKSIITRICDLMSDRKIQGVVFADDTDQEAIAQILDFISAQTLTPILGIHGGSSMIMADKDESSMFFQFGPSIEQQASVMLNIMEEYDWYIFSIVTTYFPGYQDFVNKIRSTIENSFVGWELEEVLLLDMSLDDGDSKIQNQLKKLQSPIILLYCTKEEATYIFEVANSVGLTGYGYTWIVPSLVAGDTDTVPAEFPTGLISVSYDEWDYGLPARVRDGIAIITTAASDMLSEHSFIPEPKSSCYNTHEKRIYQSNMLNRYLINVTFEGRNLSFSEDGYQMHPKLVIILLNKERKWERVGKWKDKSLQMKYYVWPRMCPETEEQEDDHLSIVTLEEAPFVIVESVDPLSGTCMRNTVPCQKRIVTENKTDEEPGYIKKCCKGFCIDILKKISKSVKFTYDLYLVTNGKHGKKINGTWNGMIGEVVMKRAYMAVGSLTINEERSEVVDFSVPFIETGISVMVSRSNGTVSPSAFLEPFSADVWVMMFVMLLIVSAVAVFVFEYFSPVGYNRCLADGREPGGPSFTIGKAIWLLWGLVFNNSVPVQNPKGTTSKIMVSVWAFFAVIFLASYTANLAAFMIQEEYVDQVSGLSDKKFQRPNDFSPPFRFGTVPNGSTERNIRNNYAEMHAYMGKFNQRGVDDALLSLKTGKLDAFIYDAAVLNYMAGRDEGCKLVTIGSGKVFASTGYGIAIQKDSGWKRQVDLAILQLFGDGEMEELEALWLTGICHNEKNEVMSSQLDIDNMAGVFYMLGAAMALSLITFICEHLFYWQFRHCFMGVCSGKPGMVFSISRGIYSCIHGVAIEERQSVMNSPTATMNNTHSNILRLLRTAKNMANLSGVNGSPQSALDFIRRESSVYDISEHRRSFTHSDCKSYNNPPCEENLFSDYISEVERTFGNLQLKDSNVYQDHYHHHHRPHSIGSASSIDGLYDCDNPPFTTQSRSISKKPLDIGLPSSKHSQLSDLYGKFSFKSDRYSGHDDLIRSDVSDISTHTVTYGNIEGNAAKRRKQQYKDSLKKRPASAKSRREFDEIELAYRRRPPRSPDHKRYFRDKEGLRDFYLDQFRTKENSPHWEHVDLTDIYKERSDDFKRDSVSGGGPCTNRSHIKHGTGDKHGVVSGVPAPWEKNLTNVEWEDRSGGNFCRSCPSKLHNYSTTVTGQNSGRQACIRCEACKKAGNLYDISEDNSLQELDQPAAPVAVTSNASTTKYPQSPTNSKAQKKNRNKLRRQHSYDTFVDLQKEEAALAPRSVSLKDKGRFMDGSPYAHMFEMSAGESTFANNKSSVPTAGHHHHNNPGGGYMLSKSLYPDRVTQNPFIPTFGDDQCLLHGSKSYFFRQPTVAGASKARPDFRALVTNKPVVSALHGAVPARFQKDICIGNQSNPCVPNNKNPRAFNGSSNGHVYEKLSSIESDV
The assay can be described thus: Calcium flux (FLIPR) assay on cloned human NR1/GluN2B ion channels expressed in mammalian cells, standard assay. The format is cell-based. The conditions noted are these: glutamate ~EC40 and 10 μM glycine, stable cell line with Tet-On induced expression. How it is done:
Effects of Test Articles on Cloned Human NR1/GluN2B Ion Channels Expressed in Mammalian Cells
NMDA receptors are ion channels that are highly permeable to Ca^2+ ions, rendering it possible to monitor NMDA receptor function using cell-based calcium flux assay. In this assay, co-agonists glutamate and glycine are added to cells heterologously expressing human GluN1/GluN2B NMDA receptors to initiate cellular Ca^2+ influx. The time course of the changes in intracellular calcium is measured using a fluorescent dye and a FLIPR (Fluorometric Imaging Plate Reader) device.
Twenty four hours before measurements, the expression of the NMDA receptors in the stable cell line is induced with Tet-On inducible system in the presence of a non-selective NMDA receptor blocker. On the day of the experiment, cell culture media is carefully washed and the cells are loaded with Calcium 5 Dye Kit (Molecular Devices) in dye loading buffer containing 137 mM NaCl, 4 mM KCl, 2 mM CaCl2, 0.5 mM MgCl2 (standard assay) or 1.5 mM MgCl2 (HTS assay), 10 mM HEPES and 5 mM D-glucose; pH 7.4. After 1 h incubation at the room temperature, the dye is washed away with the assay buffer (137 mM NaCl (standard assay) or 150 mM (HTS assay), 4 mM KCl (standard assay) or 3 mM (HTS assay), 2 mM CaC2, 0.01 mM EDTA, 10 mM HEPES and 5 mM D-glucose; pH 7.4) In the FLIPR TETRA reader, various concentrations of the test compounds are added to the cells for 5 min while fluorescence is monitored to detect potential agonist activity. Next, co-agonists, glutamate and glycine are added for another 5 minutes. The concentration of glutamate corresponding to ˜EC40 (standard assay) or EC40 (HTS assay) is used to maximize the assay's signal window and ability to detect NMDA receptor antagonists and negative allosteric modulators. A saturating concentration (10 μM) of glycine is also present in the assay. A non-selective NMDA receptor antagonist, (+)MK-801 is used as a positive control for antagonist activity. The fluorescent signal in the presence of test compounds is quantified and normalized to the signal defined by the appropriate control wells.
(A change in cytosolic calcium serves as a functional read-out for many receptors and channels.)
For `Cc1cc(-c2cnc3cnn(CC(=O)C4CCC4)c3c2)ccc1F` [Example 70, 1-Cyclobutyl-2-[6-(4-fluoro-3-methyl-phenyl)pyrazolo[4,3-b]pyridin-1-yl]ethanone], the IC50 turned out to be 63 nM.

On to `CC(C)C(=O)Cn1ncc2ncc(-c3ccc(F)c(F)c3F)cc21` [Example 54, 3-Methyl-1-[6-(2,3,4-trifluorophenyl)pyrazolo[4,3-b]pyridin-1-yl]butan-2-one], for which the IC50 is 205 nM.

As for `CC(=O)Cn1ncc2ncc(-c3ccc(Cl)c(OC(F)F)c3)cc21` [Example 26, 1-[6-[4-Chloro-3-(difluoromethoxy)phenyl]pyrazolo[4,3-b]pyridin-1-yl]propan-2-one], the IC50 was determined as 36 nM.

Take `CC[S+]([O-])Cn1ncc2ncc(-c3ccc(Cl)c(OC(F)F)c3)cc21` (racemic) [Example 87, (RS)-6-[4-Chloro-3-(difluoromethoxy)phenyl]-1-(ethylsulfinylmethyl)pyrazolo[4,3-b]pyridine]: the IC50 came out at 109 nM.

As to `CCC(O)Cn1ncc2ncc(-c3ccc(F)c(F)c3)cc21` (racemic) [Example 91, (RS)-1-[6-(3,4-Difluorophenyl)pyrazolo[4,3-b]pyridin-1-yl]butan-2-ol], the IC50 is 526 nM.

As for `OC(Cn1ncc2ncc(-c3ccc(F)c(C(F)F)c3)cc21)C1CC1` (racemic) [Example 104, (RS)-1-Cyclopropyl-2-(6-(3-(difluoromethyl)-4-fluorophenyl)-1H-pyrazolo[4,3-b]pyridin-1-yl)ethan-1-ol], the IC50 was 165 nM.

On to `Cc1cc(-c2cnc3cnn(CC(=O)C4CC4)c3c2)ccc1F` [Example 69, 1-Cyclopropyl-2-[6-(4-fluoro-3-methyl-phenyl)pyrazolo[4,3-b]pyridin-1-yl]ethanone], for which the IC50 stood at 19 nM.

With `Fc1ccc(-c2cnc3cnn(CC(F)(F)C4CC4)c3c2)cc1OC(F)F` [Example 109, 1-(2-Cyclopropyl-2,2-difluoro-ethyl)-6-[3-(difluoromethoxy)-4-fluoro-phenyl]pyrazolo[4,3-b]pyridine], the IC50 amounted to 69 nM.

In the case of `CCC(=O)Cn1ncc2ncc(-c3ccc(F)c(F)c3F)cc21` [Example 43, 1-[6-(2,3,4-Trifluorophenyl)pyrazolo[4,3-b]pyridin-1-yl]butan-2-one], the IC50 worked out at 28 nM.

`CCC(O)Cn1ncc2ncc(-c3ccc(Cl)c(OC(F)F)c3)cc21` (racemic) [Example 93, (RS)-1-[6-[4-Chloro-3-(difluoromethoxy)phenyl]pyrazolo[4,3-b]pyridin-1-yl]butan-2-ol]: the IC50 amounted to 415 nM.

On to `CCC(=O)Cn1ncc2ncc(-c3ccc(F)cc3)cc21` [Example 28, 1-[6-(4-Fluorophenyl)pyrazolo[4,3-b]pyridin-1-yl]butan-2-one], for which the IC50 came out at 32 nM.

For the molecule `CN1C[C@H](Cn2ncc3ncc(-c4ccc(F)c(C(F)F)c4)cc32)OC1=O` [Example 129], the IC50 stood at 30 nM.

For the molecule `CC(C)C(=O)Cn1ncc2ncc(-c3ccc(F)c(F)c3)cc21` [Example 49, 1-[6-(3,4-Difluorophenyl)pyrazolo[4,3-b]pyridin-1-yl]-3-methyl-butan-2-one], the IC50 worked out at 25 nM.

Turning to `CC(C)C(=O)Cn1ncc2ncc(-c3cc(F)c(F)c(F)c3)cc21` [Example 53, 3-Methyl-1-[6-(3,4,5-trifluorophenyl)pyrazolo[4,3-b]pyridin-1-yl]butan-2-one], the IC50 stood at 41 nM.

With `CN1C[C@@H](Cn2ncc3ncc(-c4ccc(F)c(C(F)F)c4)cc32)CC1=O` [Example 121, (S)-4-[[6-[3-(Difluoromethyl)-4-fluoro-phenyl]pyrazolo[4,3-b]pyridin-1-yl]methyl]-1-methyl-pyrrolidin-2-one], the IC50 was 685 nM.

As for `CC(C)C(=O)Cn1ncc2ncc(-c3ccc(F)c(C(F)(F)F)c3)cc21` [Example 51, 1-[6-[4-Fluoro-3-(trifluoromethyl)phenyl]pyrazolo[4,3-b]pyridin-1-yl]-3-methyl-butan-2-one], the IC50 turned out to be 296 nM.

With `O=C1NCC(Cn2ncc3ncc(-c4ccc(Cl)c(OC(F)F)c4)cc32)O1` (racemic) [Example 126, (RS)-5-[[6-[4-Chloro-3-(difluoromethoxy)phenyl]pyrazolo[4,3-b]pyridin-1-yl]methyl]oxazolidin-2-one], the IC50 came out at 306 nM.

In the case of `O=C(Cn1ncc2ncc(-c3ccc(F)cc3)cc21)C1CC1` [Example 59, 1-Cyclopropyl-2-[6-(4-fluorophenyl)pyrazolo[4,3-b]pyridin-1-yl]ethanone], the IC50 stood at 13 nM.

As for `CN1C(=O)CCC1Cn1ncc2ncc(-c3ccc(F)c(C(F)F)c3)cc21` (racemic) [Example 115, (RS)-5-[[6-[3-(Difluoromethyl)-4-fluoro-phenyl]pyrazolo[4,3-b]pyridin-1-yl]methyl]-1-methyl-pyrrolidin-2-one], the IC50 is over 3000 nM.

On to `CCC(=O)Cn1ncc2ncc(-c3ccc(F)c(C(C)(F)F)c3)cc21` [Example 37, 1-[6-[3-(1,1-Difluoroethyl)-4-fluoro-phenyl]pyrazolo[4,3-b]pyridin-1-yl]butan-2-one], for which the IC50 stood at 41 nM.

For `O=C(Cn1ncc2ncc(-c3cccc(C(F)(F)F)c3F)cc21)C1CC1` [Example 73, 1-Cyclopropyl-2-[6-[2-fluoro-3-(trifluoromethyl)phenyl]pyrazolo[4,3-b]pyridin-1-yl]ethanone], the IC50 was determined as 43 nM.

Turning to `CCC(=O)Cn1ncc2ncc(-c3cccc(F)c3)cc21` [Example 29, 1-[6-(3-Fluorophenyl)pyrazolo[4,3-b]pyridin-1-yl]butan-2-one], the IC50 is 28 nM.

Take `FC(F)(F)c1cccc(-c2cnc3cnn(CC4CCCO4)c3c2)c1` (racemic) [Example 111, (RS)-1-(Tetrahydrofuran-2-ylmethyl)-6-[3-(trifluoromethyl)phenyl]pyrazolo[4,3-b]pyridine]: the IC50 amounted to 93 nM.

Take `O=C(Cn1ncc2ncc(-c3ccc(F)c(C(F)F)c3)cc21)c1ncc(F)cc1F` [Example 141, 2-(6-(3-(Difluoromethyl)-4-fluorophenyl)-1H-pyrazolo[4,3-b]pyridin-1-yl)-1-(3,5-difluoropyridin-2-yl)ethan-1-one]: the IC50 amounted to 409 nM.

Consider `Cc1cc(-c2cnc3cnn(CC(O)C(C)C)c3c2)ccc1F` (racemic) [Example 8, (RS)-1-[6-(4-Fluoro-3-methyl-phenyl)pyrazolo[4,3-b]pyridin-1-yl]-3-methyl-butan-2-ol], for which the IC50 worked out at 222 nM.

Consider `ON=C(Cn1ncc2ncc(-c3ccc(F)c(C(F)F)c3)cc21)C1CC1` (mixture of isomers) [Example 107, (E/Z)-1-Cyclopropyl-2-[6-[3-(difluoromethyl)-4-fluoro-phenyl]pyrazolo[4,3-b]pyridin-1-yl]ethanone oxime], for which the IC50 came out at 65 nM.

For `Fc1ccc(-c2cnc3cnn(CC(F)(F)C4CC4)c3c2)cc1C(F)F` [Example 108, 1-(2-Cyclopropyl-2,2-difluoro-ethyl)-6-[3-(difluoromethyl)-4-fluoro-phenyl]pyrazolo[4,3-b]pyridine], the concentration for half-maximal inhibition (IC50) was found to be 45 nM.

For `Cc1cc(F)ccc1-c1cnc2cnn(CC(=O)C(C)C)c2c1` [Example 52, 1-[6-(4-Fluoro-2-methyl-phenyl)pyrazolo[4,3-b]pyridin-1-yl]-3-methyl-butan-2-one], the IC50 was 90 nM.

Take `O=C(Cn1ncc2ncc(-c3ccc(F)c(C(F)(F)F)c3)cc21)C1CC1` [Example 74, 1-Cyclopropyl-2-[6-[4-fluoro-3-(trifluoromethyl)phenyl]pyrazolo[4,3-b]pyridin-1-yl]ethanone]: the IC50 came out at 36 nM.

Consider `CC[S+]([O-])Cn1ncc2ncc(-c3ccc(F)c(OC(F)F)c3)cc21` (racemic) [Example 12, (RS)-6-[3-(Difluoromethoxy)-4-fluoro-phenyl]-1-(ethylsulfinylmethyl)pyrazolo[4,3-b]pyridine], for which the IC50 came to 146 nM.

For `CN1CC(Cn2ncc3ncc(-c4ccc(F)c(OC(F)F)c4)cc32)CC1=O` (racemic) [Example 19, (RS)-4-[[6-[3-(Difluoromethoxy)-4-fluoro-phenyl]pyrazolo[4,3-b]pyridin-1-yl]methyl]-1-methyl-pyrrolidin-2-one], the IC50 was 992 nM.

For the molecule `Cc1cc(-c2cnc3cnn(C[C@H](O)C4CC4)c3c2)ccc1F` [Example 102, (R)-1-Cyclopropyl-2-[6-(4-fluoro-3-methyl-phenyl)pyrazolo[4,3-b]pyridin-1-yl]ethanol], the IC50 was 109 nM.

With `CN1CC[C@H](Cn2ncc3ncc(-c4ccc(F)c(C(F)F)c4)cc32)C1=O` [Example 118, (R)-3-[[6-[3-(Difluoromethyl)-4-fluoro-phenyl]pyrazolo[4,3-b]pyridin-1-yl]methyl]-1-methyl-pyrrolidin-2-one], the IC50 stood at 125 nM.
